Experimental data: EP4741386A1 (Jiangsu Yahong Meditech Co., Ltd., priority 2023, dated 2025)

What was measured:
[1] = target: T1, Recombinant human His6-USP1/His6-UAF1 complex protein (Homo sapiens, UniProt O94782); assay: In vitro inhibitory activity against USP1 (Ubiquitin Rhodamine 110 fluorescence detection, 384-well plate); type: biochemical; conditions: Ub-Rho substrate, 1 hour pre-incubation, read after 30 minutes
T1 construct: His6; purchased R&D E-568-050
Outline: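 Compounds, kept as 50 mM DMSO stocks, were acoustically dispensed into modified Tris buffer. Inhibition of recombinant human His6-USP1/His6-UAF1 was read by fluorescence from cleavage of Ub-Rho110 substrate.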

[2] = test system: MDA-MB-436; assay: CTG experiment for cell viability (CellTiter-Glo, 96-well plate, 7 days); type: cell-based; conditions: Homo sapiens, MDA-MB-436, 168 h, MDA-MB-436 cells, 7 days culture with compound
Outline: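 Viability was read by CellTiter-Glo luminescence after 10 min at room temperature, once the compound-containing medium had been replaced with PBS. Before that, MDA-MB-436 cells grown in DMEM were exposed to compounds for 7 days at 37°C. Curve fitting followed the enzyme assay method.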

T1 sequence (O94782 whole entry): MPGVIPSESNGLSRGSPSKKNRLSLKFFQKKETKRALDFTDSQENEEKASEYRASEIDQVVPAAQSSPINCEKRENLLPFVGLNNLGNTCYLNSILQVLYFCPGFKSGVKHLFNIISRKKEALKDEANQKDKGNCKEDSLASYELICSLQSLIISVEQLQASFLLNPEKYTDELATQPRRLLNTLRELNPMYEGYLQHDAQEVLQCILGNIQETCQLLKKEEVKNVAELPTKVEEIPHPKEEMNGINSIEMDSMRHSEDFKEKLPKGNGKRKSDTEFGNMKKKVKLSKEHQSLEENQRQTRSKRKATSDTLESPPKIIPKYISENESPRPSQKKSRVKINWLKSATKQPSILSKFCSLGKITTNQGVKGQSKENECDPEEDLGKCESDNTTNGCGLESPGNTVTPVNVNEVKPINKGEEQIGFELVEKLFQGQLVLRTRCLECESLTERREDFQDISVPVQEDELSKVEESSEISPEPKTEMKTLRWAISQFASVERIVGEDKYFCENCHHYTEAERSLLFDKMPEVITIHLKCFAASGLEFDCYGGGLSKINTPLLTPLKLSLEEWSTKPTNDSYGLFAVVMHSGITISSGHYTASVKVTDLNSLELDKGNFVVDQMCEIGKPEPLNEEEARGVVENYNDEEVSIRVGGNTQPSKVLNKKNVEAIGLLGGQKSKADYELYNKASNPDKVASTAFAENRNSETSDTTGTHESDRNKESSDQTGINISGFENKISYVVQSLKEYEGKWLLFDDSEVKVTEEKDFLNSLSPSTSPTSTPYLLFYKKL
T1 sequence (Q8TAF3 whole entry partner): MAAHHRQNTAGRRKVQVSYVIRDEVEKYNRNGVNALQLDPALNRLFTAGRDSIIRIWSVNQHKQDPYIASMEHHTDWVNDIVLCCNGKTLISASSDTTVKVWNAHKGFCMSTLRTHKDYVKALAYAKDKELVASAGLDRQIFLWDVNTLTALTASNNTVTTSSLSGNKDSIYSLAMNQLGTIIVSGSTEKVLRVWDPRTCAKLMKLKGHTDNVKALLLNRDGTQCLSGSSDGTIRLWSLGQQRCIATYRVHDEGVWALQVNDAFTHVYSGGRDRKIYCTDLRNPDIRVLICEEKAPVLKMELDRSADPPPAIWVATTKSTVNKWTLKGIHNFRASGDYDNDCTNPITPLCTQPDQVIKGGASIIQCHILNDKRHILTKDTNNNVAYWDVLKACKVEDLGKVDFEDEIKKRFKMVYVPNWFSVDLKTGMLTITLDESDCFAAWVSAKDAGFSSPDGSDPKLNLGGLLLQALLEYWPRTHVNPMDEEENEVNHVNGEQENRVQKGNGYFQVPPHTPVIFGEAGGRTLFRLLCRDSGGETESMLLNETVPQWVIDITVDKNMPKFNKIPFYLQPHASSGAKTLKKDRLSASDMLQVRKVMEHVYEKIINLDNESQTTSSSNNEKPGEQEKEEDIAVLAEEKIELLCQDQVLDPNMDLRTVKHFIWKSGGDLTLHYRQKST

Compound	IC50 [1] [nM]	IC50 [2] [nM]
COc1cnc(-c2c(OC)ncnc2C2CC2)nc1NCC1CCN(c2nc(C(F)(F)F)cn2C)CC1 [Example 95, 4'-Cyclopropyl-5,6'-dimethoxy-N-((1-(1-methyl-4-(trifluoromethyl)-1H-imidazol-2-yl)piperidin-4-yl)methyl)-[2,5'-bipyrimidin]-4-amine]	8.4	75.1
COc1cnc(-c2ccccc2C(C)C)nc1N(C)CC1CCN(c2ccccn2)CC1 [Example 2, 2-(2-Isopropylphenyl)-5-methoxy-N-methyl-N-((1-(pyridin-2-yl)piperidin-4-yl)methyl)pyrimidin-4-amine]	14	0.1
COc1cc(CNc2nc(-c3c(OC)ncnc3C3CC3)ncc2OC)ccc1-n1nc(C(F)(F)F)cc1C [Example 103, 4'-Cyclopropyl-5,6'-dimethoxy-N-(3-methoxy-4-(5-methyl-3-(trifluoromethyl)-1H-pyrazol-1-yl)benzyl)-[2,5'-bipyrimidin]-4-amine]	10	141
Cc1cc(C(F)(F)F)nn1-c1ccc(CNc2nc(-c3ccccc3C3CC3)nc3ccoc23)cc1 [Example 174, 2-(2-Cyclopropylphenyl)-N-(4-(5-methyl-3-(trifluoromethyl)-1H-pyrazol-1-yl)benzyl)furo[3,2-d]pyrimidin-4-amine]	5.1	43.7
COc1cc(CNc2nc(-c3ccccc3C(C)C)nc3ccoc23)ccc1-n1nc(C(F)(F)F)cc1C [Example 84, 2-(2-Isopropylphenyl)-N-(3-methoxy-4-(5-methyl-3-(trifluoromethyl)-1H-pyrazol-1-yl)benzyl)furo[3,2-d]pyrimidin-4-amine]	9	704
COc1cnc(-c2ccccc2C(C)C)nc1NC[C@H]1CC[C@H](c2nc(C(F)(F)F)cn2C)CC1 [Example 6, 2-(2-Isopropylphenyl)-5-methoxy-N-(((1R,4R)-4-(1-methyl-4-(trifluoromethyl)-1H-imidazol-2-yl)cyclohexyl)methyl)pyrimidin-4-amine]	1.2	2
COc1ncnc(C2CC2)c1-c1ncc(OC(C)C)c(N(C)Cc2ccc(-c3nc(C(F)(F)F)cn3C)cc2)n1 [Example 109, 4'-Cyclopropyl-5-isopropoxy-6'-methoxy-N-methyl-N-(4-(1-methyl-4-(trifluoromethyl)-1H-imidazol-2-yl)benzyl)-[2,5'-bipyrimidin]-4-amine]	5.3	48.3

The remaining compounds from weak to strong by IC50 [1], led by results:

IC50 [1] [nM]	IC50 [2] [nM]	Compound
19.7	353	COc1ncnc(C2CC2)c1-c1ncc(OC(C)C)c(N(C)CC2CCN(c3nc(C(F)(F)F)cn3C)CC2)n1 [Example 108, 4'-Cyclopropyl-5-isopropoxy-6'-methoxy-N-methyl-N-((1-(1-methyl-4-(trifluoromethyl)-1H-imidazol-2-yl)piperidin-4-yl)methyl)-[2,5'-bipyrimidin]-4-amine]
10	157	CC(C)c1ccccc1-c1ncc(N2CCN(C)CC2)c(NCc2ccc(-c3nc(C(F)(F)F)cn3C)cc2)n1 [Example 88, 2-(2-Isopropylphenyl)-N-(4-(1-methyl-4-(trifluoromethyl)-1H-imidazol-2-yl)benzyl)-5-(4-methylpiperazin-1-yl)pyrimidin-4-amine]
6.1	13.2	COc1ncnc(C2CC2)c1-c1ncc(Cl)c(NCc2ccc(-c3nc(C(F)(F)F)cn3C)cc2)n1 [Example 124, 5-Chloro-4'-cyclopropyl-6'-methoxy-N-(4-(1-methyl-4-(trifluoromethyl)-1H-imidazol-2-yl)benzyl)-[2,5'-bipyrimidin]-4-amine]
2.1	12.3	COc1cnc(-c2cccnc2C(C)C)nc1NCc1ccc(-n2nc(C(F)(F)F)cc2C)cc1 [Example 158, 2-(2-Isopropylpyridin-3-yl)-5-methoxy-N-(4-(5-methyl-3-(trifluoromethyl)-1H-pyrazol-1-yl)benzyl)pyrimidin-4-amine]
0.47	22.5	C#Cc1cnc(-c2ccccc2C(C)C)nc1NCc1ccc(-c2nc(C(F)(F)F)cn2C)cc1 [Example 85, 5-Ethynyl-2-(2-isopropylphenyl)-N-(4-(1-methyl-4-(trifluoromethyl)-1H-imidazol-2-yl)benzyl)pyrimidin-4-amine]
